Assay results as given in US6339098B1, “2,1-benzisothiazoline 2,2-dioxides” (American Home Products Corporation, priority 1999, dated 2002).

Molecular target: T1, human PR (hPR-B) (Homo sapiens, UniProt P06401)
T1 construct: expressed in transfected cells; host or cells: CV-1 cells (electroporation with pLEM-hPR-B and pGL3-2xPRE-luciferase)
T1 sequence (P06401 1-933): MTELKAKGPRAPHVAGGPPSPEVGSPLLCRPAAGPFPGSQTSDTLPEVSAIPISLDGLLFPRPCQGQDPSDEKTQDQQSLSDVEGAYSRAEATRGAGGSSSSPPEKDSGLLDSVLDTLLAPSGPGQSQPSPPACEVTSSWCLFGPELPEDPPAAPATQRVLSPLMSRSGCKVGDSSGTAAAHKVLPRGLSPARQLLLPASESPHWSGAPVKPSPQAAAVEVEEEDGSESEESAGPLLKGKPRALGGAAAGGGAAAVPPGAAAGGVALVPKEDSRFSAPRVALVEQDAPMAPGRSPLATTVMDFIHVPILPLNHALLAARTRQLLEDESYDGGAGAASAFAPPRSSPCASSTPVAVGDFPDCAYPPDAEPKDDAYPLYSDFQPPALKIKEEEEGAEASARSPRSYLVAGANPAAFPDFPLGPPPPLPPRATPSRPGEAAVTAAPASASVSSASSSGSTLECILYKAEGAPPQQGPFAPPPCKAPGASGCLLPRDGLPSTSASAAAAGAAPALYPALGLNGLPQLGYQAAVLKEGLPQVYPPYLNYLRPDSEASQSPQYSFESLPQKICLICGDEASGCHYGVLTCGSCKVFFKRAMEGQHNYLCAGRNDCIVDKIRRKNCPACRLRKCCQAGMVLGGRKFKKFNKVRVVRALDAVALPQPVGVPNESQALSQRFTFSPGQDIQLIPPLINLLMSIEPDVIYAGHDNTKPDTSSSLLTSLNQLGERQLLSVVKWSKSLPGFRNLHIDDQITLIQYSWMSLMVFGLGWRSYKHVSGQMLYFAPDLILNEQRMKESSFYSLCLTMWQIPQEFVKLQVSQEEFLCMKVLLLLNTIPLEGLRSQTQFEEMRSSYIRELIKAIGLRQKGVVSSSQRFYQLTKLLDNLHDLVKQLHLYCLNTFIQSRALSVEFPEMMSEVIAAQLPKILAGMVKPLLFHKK
Assay: PRE-luciferase reporter activity in CV-1 cells co-transfected with human PR and PRE-luciferase plasmids (antiprogestational activity)
Assay type: cell-based
Conditions: CV-1 cells co-transfected with hPR-B and PRE-luciferase; in the presence of 3 nM progesterone; 24 h treatment; read-out: IC50 (concentration giving half-maximal decrease in 3 nM progesterone induced PRE-luciferase activity)
Method: The procedure used and results obtained are described in Example 2 below.
Growth medium: DMEM (BioWhittaker) containing 10% (v/v) fetal bovine serum (heat inactivated), 0.1 mM MEM non-essential amino acids, 100 U/ml penicillin, […] streptomycin, and 2 mM GlutaMax (GIBCO, BRL).
Experimental medium: DMEM (BioWhittaker), phenol red-free, containing 10% (v/v) charcoal-stripped fetal bovine serum (heat-inactivated), 0.1 mM MEM non-essential amino acids, 100 U/ml penicillin, […] streptomycin, and 2 mM GlutaMax (GIBCO, BRL).
Stock CV-1 cells were maintained in growth medium. Co-transfection was done using 1.2×10^7 cells, 5 mg pLEM plasmid with hPR-B inserted at Sph1 and BamH1 sites, 10 mg pGL3 plasmid with two PREs upstream of the luciferase sequence, and 50 mg sonicated calf thymus DNA as carrier DNA in […]. Electroporation was carried out at 260 V and […] in a Biorad Gene Pulser II. After electroporation, cells were resuspended in growth medium and plated in 96-well plate at 40,000 cells/well in […]. Following overnight incubation, the medium was changed to experimental medium Cells were then treated with reference or test compounds in experimental medium. Compounds were tested for antiprogestational activity in the presence of 3 nM progesterone. […] Luciferase activity was measured using luciferase reagents from Promega. […]

Q: With `O=S1(=O)Nc2ccc(-c3cccc(Cl)c3)cc2C12CCCCC2` [Example 1] as the compound, how does the IC50 read?
A: 900 nM
